Assay results: patent US11919887B2, “Substituted tetrahydrofurans as modulators of sodium channels” (Vertex Pharmaceuticals Incorporated, priority 2019, dated 2024)

Target: human Nav 1.8 (Homo sapiens, UniProt Q9Y5Y9)
Test: E-VIPR assay detecting and measuring Nav inhibition (HEK cells expressing truncated human Nav 1.8)
Type: cell-based
Conditions: in the Absence of Human Serum in the E-VIPR Assay; read-out: IC50
Description: Sodium ion channels are voltage-dependent proteins that can be activated by inducing membrane voltage changes by applying electric fields. The electrical stimulation instrument and methods of use, referred to as E-VIPR, are described in International Publication No. WO 2002/008748 A3 and C.-J. Huang et al. Characterization of voltage-gated sodium channel blockers by electrical stimulation and fluorescence detection of membrane potential, 24 Nature Biotech. 439-46 (2006), both of which are incorporated by reference in their entirety. The instrument comprises a microtiter plate handler, an optical system for exciting the coumarin dye while simultaneously recording the coumarin and oxonol emissions, a waveform generator, a current- or voltage-controlled amplifier, and parallel electrode pairs that are inserted into assay plate wells. Under integrated computer control, this instrument passes user-programmed electrical stimulus protocols to cells within the wells of the microtiter plate.
16-20 hours prior to running the assay on E-VIPR, HEK cells expressing a truncated form of human Nav 1.8 with full channel activity were seeded into microtiter 384-well plates, pre-coated with matrigel, at a density of 25,000 cells per well. 2.5-5% KIR2.1 Bacmam virus was added to the final cell suspension before seeding into cell plates. HEK cells were grown in Dulbecco's Modified Eagle's Medium (DMEM) supplemented with 10% FBS (Fetal Bovine Serum, qualified; Sigma #F4135), 1% NEAA (Non-Essential Amino Acids, Gibco #11140), 1% HEPES (Gibco #15630), 1% Pen-Strep (Penicillin-Streptomycin; Gibco #15140) and 5 μg/ml Blasticidin (Gibco #R210-01). Cells were expanded in vented cap cell culture flasks, with 90-95% humidity and 5% CO2.
Human Serum (HS, Millipore #S1P1-01KL, or Sigma SLBR5469V and SLBR5470V as a 50%/50% mixture, for 25% assay final concentration)
Bath1 Buffer: • Sodium Chloride 160 mM (9.35 g/L), Potassium Chloride, 4.5 mM (0.335 g/L), Glucose 10 mM (1.8 g/L), Magnesium Chloride (Anhydrous) 1 mM (0.095 g/L), Calcium Chloride 2 mM (0.222 g/L), HEPES 10 mM (2.38 g/L) in water.
Na/TMA Cl Bath1 Buffer: • Sodium Chloride 96 mM (5.61 g/L), Potassium Chloride 4.5 mM (0.335 g/L), Tetramethylammonium (TMA)-Cl 64 mM (7.01 g/L), Glucose 10 mM (1.8 g/L), Magnesium Chloride (Anhydrous) 1 mM (0.095 g/L), Calcium Chloride 2 mM (0.222 g/L) HEPES 10 mM (2.38 g/L) in water.
Hexyl Dye Solution (2× concentration): • Bath1 Buffer containing 0.5% β-cyclodextrin (made fresh prior to each use, Sigma #C4767), 8 μM CC2-DMPE and 2 μM DiSBAC6(3). The solution was made by adding 10% Pluronic F127 stock equal to combined volumes of CC2-DMPE and DiSBAC6(3). The order of preparation was first mix Pluronic and CC2-DMPE, then add DiSBAC6(3), then while vortexing add Bath1/β-Cyclodextrin.
Compound Loading Buffer (2×concentration): Na/TMA Cl Bath1 Buffer containing HS (omitted in experiments run in the absence of human serum (HS)) 50%, VABSC-1 1 mM, BSA 0.2 mg/ml (in Bath-1), KCl 9 mM, DMSO 0.75%.
Assay Protocol (7 Key Steps): • 1) To reach the final concentration in each well, 400 nL of each compound was pre-spotted (in neat DMSO) into polypropylene compound plates at 250×desired final concentration from an intermediate stock concentration of 0.075 mM, in an 11 point dose response, 3-fold dilution, resulting in a top dose of 300 nM final concentration in the cell plate. Vehicle control (neat DMSO), and positive control (an established Nav1.8 inhibitor, 25 μM final in assay in DMSO) were added manually to the outermost columns of each plate respectively. The compound plate was backfilled with 45 μL per well of Compound Loading Buffer resulting in a 250 fold dilution of compound following a 1:1 transfer of compound into the cell plate (see Step 6). Final DMSO concentration for all wells in the assay was 0.625% (0.75% DMSO was supplemented to the Compound Loading Buffer for a final DMSO concentration of 0.625%). […]

human Nav 1.8, sequence (Q9Y5Y9 whole entry, looked up, the tested form may be a part): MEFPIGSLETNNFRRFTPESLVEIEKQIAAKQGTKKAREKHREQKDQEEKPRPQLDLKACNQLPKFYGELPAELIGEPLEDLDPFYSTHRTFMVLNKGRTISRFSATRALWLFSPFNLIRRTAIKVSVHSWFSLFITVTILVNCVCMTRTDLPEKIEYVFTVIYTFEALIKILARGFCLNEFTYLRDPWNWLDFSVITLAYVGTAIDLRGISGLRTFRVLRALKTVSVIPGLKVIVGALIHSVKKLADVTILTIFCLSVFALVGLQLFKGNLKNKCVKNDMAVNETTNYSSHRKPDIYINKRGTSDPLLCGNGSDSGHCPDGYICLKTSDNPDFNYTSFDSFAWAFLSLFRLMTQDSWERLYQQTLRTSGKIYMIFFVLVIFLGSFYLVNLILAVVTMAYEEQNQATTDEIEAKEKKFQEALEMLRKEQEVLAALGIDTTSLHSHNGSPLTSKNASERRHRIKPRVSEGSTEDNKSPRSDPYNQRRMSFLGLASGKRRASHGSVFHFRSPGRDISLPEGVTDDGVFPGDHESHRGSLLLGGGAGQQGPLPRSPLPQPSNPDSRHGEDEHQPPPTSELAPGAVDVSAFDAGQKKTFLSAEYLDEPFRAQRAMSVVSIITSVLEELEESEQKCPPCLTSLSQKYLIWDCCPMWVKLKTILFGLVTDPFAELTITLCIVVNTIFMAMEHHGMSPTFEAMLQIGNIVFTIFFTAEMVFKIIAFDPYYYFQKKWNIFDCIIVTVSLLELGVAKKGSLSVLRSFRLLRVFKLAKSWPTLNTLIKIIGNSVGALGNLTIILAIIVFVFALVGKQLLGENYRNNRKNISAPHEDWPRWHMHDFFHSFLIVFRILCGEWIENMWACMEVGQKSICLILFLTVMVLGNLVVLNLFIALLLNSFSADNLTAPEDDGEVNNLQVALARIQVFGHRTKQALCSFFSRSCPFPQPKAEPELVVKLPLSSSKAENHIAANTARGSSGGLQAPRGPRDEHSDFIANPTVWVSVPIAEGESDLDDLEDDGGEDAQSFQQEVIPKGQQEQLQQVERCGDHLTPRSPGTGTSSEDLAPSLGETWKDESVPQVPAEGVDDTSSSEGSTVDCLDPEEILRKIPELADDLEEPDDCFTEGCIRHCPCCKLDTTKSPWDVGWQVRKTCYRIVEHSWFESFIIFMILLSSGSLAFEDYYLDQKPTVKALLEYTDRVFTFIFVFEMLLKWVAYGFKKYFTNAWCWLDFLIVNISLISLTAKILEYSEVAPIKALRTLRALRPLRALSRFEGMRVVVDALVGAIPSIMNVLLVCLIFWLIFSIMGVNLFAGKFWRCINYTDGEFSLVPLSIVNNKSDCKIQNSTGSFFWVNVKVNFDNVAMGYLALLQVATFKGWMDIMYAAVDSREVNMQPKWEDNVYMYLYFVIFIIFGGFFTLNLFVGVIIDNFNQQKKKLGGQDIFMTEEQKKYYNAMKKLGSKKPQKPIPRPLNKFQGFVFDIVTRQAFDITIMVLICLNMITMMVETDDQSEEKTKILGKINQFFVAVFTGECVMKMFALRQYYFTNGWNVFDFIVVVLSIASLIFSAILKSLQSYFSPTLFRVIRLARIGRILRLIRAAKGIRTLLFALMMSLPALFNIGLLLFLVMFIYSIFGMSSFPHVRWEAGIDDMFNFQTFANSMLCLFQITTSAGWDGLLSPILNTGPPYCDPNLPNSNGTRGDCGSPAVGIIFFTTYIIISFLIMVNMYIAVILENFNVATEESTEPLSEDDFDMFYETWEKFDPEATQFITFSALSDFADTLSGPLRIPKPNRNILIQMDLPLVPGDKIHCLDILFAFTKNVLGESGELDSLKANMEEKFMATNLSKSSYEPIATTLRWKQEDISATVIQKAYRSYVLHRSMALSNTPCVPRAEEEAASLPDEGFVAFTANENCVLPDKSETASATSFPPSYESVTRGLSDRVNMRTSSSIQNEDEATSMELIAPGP

First: COc1c([C@@H]2[C@@H](C(=O)Nc3ccnc(C(N)=O)c3)O[C@](C)(C(F)(F)F)[C@@H]2C)ccc(C(F)F)c1F (single isomer, unassigned) [Compound 135]
Second: COc1c([C@H]2[C@H](C(=O)Nc3ccnc(C(N)=O)c3)O[C@@](C)(C(F)(F)F)[C@H]2C)ccc(C(F)F)c1F (single isomer, unassigned) [Compound 136]
The IC50 of the first is higher: greater than 1000 nM for the first, less than 10 nM for the second.

Compared with `COc1c([C@H]2[C@H](C(=O)Nc3ccnc(C(N)=O)c3)O[C@@](C)(C(F)(F)F)[C@H]2C)cccc1C(F)(F)F` (single isomer, unassigned) [compound 42], `COc1c([C@@H]2[C@@H](C(=O)Nc3ccnc(C(N)=O)c3)O[C@](C)(C(F)(F)F)[C@@H]2C)cccc1C(F)(F)F` (single isomer, unassigned) [compound 43] is higher in IC50: less than 10 nM for the first, 100 to 1000 nM for the second. The first is the more potent here.

Same assay, conditions: in the Presence of Human Serum in the E-VIPR Assay; read-out: IC50

First: COc1c([C@@H]2[C@@H](C(=O)Nc3ccnc(C(N)=O)c3)O[C@](C)(C(F)(F)F)[C@@H]2C2CC2)ccc(F)c1F (single isomer, unassigned) [Compound 94]
Second: COc1c([C@H]2[C@H](C(=O)Nc3ccnc(C(N)=O)c3)O[C@@](C)(C(F)(F)F)[C@H]2C2CC2)ccc(F)c1F (single isomer, unassigned) [Compound 95]
The IC50 of the first is lower: less than 10 nM for the first, greater than 1000 nM for the second. The first is the more potent here.

`COc1c([C@@H]2[C@@H](C(=O)Nc3ccnc(C(N)=O)c3)OC(C)(C)[C@H]2C)ccc(F)c1F` (single isomer, unassigned) [Compound 101] and `COc1c([C@@H]2[C@@H](C)C(C)(C)O[C@H]2C(=O)Nc2ccnc(C(N)=O)c2)ccc(F)c1F` (single isomer, unassigned) [Compound 102] cannot be ordered by IC50: greater than 1000 nM for the first, greater than 1000 nM for the second.

`COc1c([C@@H]2[C@@H](C)C(C)(C)O[C@H]2C(=O)Nc2ccnc(C(N)=O)c2)ccc(F)c1F` (single isomer, unassigned) [Compound 103] and `COc1c([C@@H]2[C@@H](C(=O)Nc3ccnc(C(N)=O)c3)OC(C)(C)[C@H]2C)ccc(F)c1F` (single isomer, unassigned) [Compound 104] cannot be ordered by IC50: greater than 1000 nM for the first, greater than 1000 nM for the second.

Compared with `COc1c([C@H]2[C@H](C(=O)Nc3ccnc(C(N)=O)c3)OC(C)(C)[C@H]2C)ccc(F)c1F` (single isomer, unassigned) [Compound 105], `COc1c([C@@H]2[C@@H](C(=O)Nc3ccnc(C(N)=O)c3)OC(C)(C)[C@@H]2C)ccc(F)c1F` (single isomer, unassigned) [Compound 106] is higher in IC50: 10 to 100 nM for the first, greater than 1000 nM for the second. The first is the more potent here.

Compared with `COc1c([C@H]2C[C@@H](C(F)(F)F)O[C@@H]2C(=O)Nc2ccnc(C(N)=O)c2)ccc(F)c1C` (single isomer, unassigned) [Compound 111], `COc1c([C@@H]2C[C@H](C(F)(F)F)O[C@H]2C(=O)Nc2ccnc(C(N)=O)c2)ccc(F)c1C` (single isomer, unassigned) [Compound 112] is lower in IC50: greater than 1000 nM for the first, 100 to 1000 nM for the second.

Compared with `C[C@@H]1[C@H](c2ccc(F)c(F)c2OC(F)F)[C@@H](C(=O)Nc2cccc(C(N)=O)c2)O[C@]1(C)C(F)(F)F` (single isomer, unassigned) [compound 51], `C[C@H]1[C@@H](c2ccc(F)c(F)c2OC(F)F)[C@H](C(=O)Nc2cccc(C(N)=O)c2)O[C@@]1(C)C(F)(F)F` (single isomer, unassigned) [compound 52] is lower in IC50: greater than 1000 nM for the first, less than 10 nM for the second.

First: C[C@@H]1[C@H](c2ccc(F)cc2OC(F)F)[C@@H](C(=O)Nc2ccnc(C(N)=O)c2)O[C@]1(C)C(F)(F)F (stereo in doubt) [Compound 1, rel-(2S,3R,4R,5S)-4-[[3-[2-(difluoromethoxy)-4-fluoro-phenyl]-4,5-dimethyl-5-(trifluoromethyl)tetrahydrofuran-2-carbonyl]amino]pyridine-2-carboxamide]
Second: C[C@H]1[C@@H](c2ccc(F)cc2OC(F)F)[C@H](C(=O)Nc2ccnc(C(N)=O)c2)O[C@@]1(C)C(F)(F)F (stereo in doubt) [Compound 2, rel-(2R,3S,4S,5R)-4-[[3-[2-(difluoromethoxy)-4-fluoro-phenyl]-4,5-dimethyl-5-(trifluoromethyl)tetrahydrofuran-2-carbonyl]amino]pyridine-2-carboxamide]
The IC50 of the first is lower: 10 to 100 nM for the first, 100 to 1000 nM for the second.

First: COc1c([C@H]2C[C@@](C)(C(F)(F)F)O[C@@H]2C(=O)Nc2ccnc(C(N)=O)c2)ccc(F)c1F (stereo in doubt) [Compound 4, rel-(2S,3R,5S)-4-[[3-(3,4-difluoro-2-methoxy-phenyl)-5-methyl-5-(trifluoromethyl)tetrahydrofuran-2-carbonyl]amino]pyridine-2-carboxamide]
Second: COc1c([C@@H]2C[C@](C)(C(F)(F)F)O[C@H]2C(=O)Nc2ccnc(C(N)=O)c2)ccc(F)c1F (stereo in doubt) [Compound 5, rel-(2R,3S,5R)-4-[[3-(3,4-difluoro-2-methoxy-phenyl)-5-methyl-5-(trifluoromethyl)tetrahydrofuran-2-carbonyl]amino]pyridine-2-carboxamide]
The IC50 of the first is higher: greater than 1000 nM for the first, 10 to 100 nM for the second. The second is the more potent here.

First: CNC(=O)c1cc(NC(=O)[C@@H]2O[C@](C)(C(F)(F)F)[C@@H](C)[C@H]2c2ccc(F)c(F)c2OC(F)F)ccn1 (stereo in doubt) [Compound 12, rel-(2R,3S,4S,5S)-4-[[3-[2-(difluoromethoxy)-3,4-difluoro-phenyl]-4,5-dimethyl-5-(trifluoromethyl)tetrahydrofuran-2-carbonyl]amino]-N-methyl-pyridine-2-carboxamide]
Second: CNC(=O)c1cc(NC(=O)[C@H]2O[C@@](C)(C(F)(F)F)[C@H](C)[C@@H]2c2ccc(F)c(F)c2OC(F)F)ccn1 (stereo in doubt) [Compound 13, rel-(2S,3R,4R,5R)-4-[[3-[2-(difluoromethoxy)-3,4-difluoro-phenyl]-4,5-dimethyl-5-(trifluoromethyl)tetrahydrofuran-2-carbonyl]amino]-N-methyl-pyridine-2-carboxamide]
The IC50 of the first is higher: greater than 1000 nM for the first, 10 to 100 nM for the second. The second is the more potent here.

`Cc1c(F)ccc([C@H]2[C@H](C(=O)Nc3ccnc(C(N)=O)c3)O[C@@](C)(C(F)(F)F)[C@H]2C)c1OC(F)F` (stereo in doubt) [Compound 16, rel-(2R,3S,4S,5R)-4-[[3-[2-(difluoromethoxy)-4-fluoro-3-methyl-phenyl]-4,5-dimethyl-5-(trifluoromethyl)tetrahydrofuran-2-carbonyl]amino]pyridine-2-carboxamide] and `CC[C@@]1(C(F)(F)F)C[C@H](c2ccc(F)c(F)c2OC)[C@@H](C(=O)Nc2ccnc(C(N)=O)c2)O1` (stereo in doubt) [Compound 63, rel-(2S,3R,5S)-4-[[3-(3,4-difluoro-2-methoxy-phenyl)-5-ethyl-5-(trifluoromethyl)tetrahydrofuran-2-carbonyl]amino]pyridine-2-carboxamide] cannot be ordered by IC50: greater than 1000 nM for the first, greater than 1000 nM for the second.

`Cc1c(F)ccc([C@H]2[C@H](C(=O)Nc3ccnc(C(N)=O)c3)O[C@@](C)(C(F)(F)F)[C@H]2C)c1OC(F)F` (stereo in doubt) [Compound 17, rel-(2R,3S,4S,5R)-4-[[3-[2-(difluoromethoxy)-4-fluoro-3-methyl-phenyl]-4,5-dimethyl-5-(trifluoromethyl)tetrahydrofuran-2-carbonyl]amino]pyridine-2-carboxamide] showed an IC50 of less than 10 nM.
